This is an account of results in paper PMC5903829 (Experimental & Molecular Medicine, 2018).

The assay concerns Caco-2 cells. As to the kind of experiment: Trans-epithelial electrical resistance in Caco-2 monolayers. The class given is cell-based, human. The note with it: compound C 30 min pre-treatment, then LPS or LPS+AmEV.

`c1cc(-c2cnn3cc(-c4ccc(OCCN5CCCCC5)cc4)cnc23)ccn1` [compound C]: the “AmEVs' ability to improve LPS-induced loss of barrier integrity (TEER) in the presence of AMPK inhibitor” value was “abolished”.
